{
  "source": "patent US20040192686A1",
  "about": "“Benzoazine mono-N-oxides and benzoazine 1,4 dioxides and compositions therefrom for the therapeutic use in cancer treatments” (Auckland Uniservices Limited, priority 2003, published 2004)",
  "data": [
    {"values": [
      {"smiles": "CC(C)(C)c1ccc2c(c1)nc(NCCN1CCOCC1)n[n+]2[O-]", "note": "[Compound 157, 6-tert-Butyl-N-[2-(4-morpholinyl)ethyl]-1,2,4-benzotriazin-3-amine 1-Oxide]", "melting point": "132 to 134 °C"},
      {"smiles": "CCc1nc2cc(F)ccc2[n+]([O-])n1", "note": "[Compound 160, 3-Ethyl-6-fluoro-1,2,4-benzotriazine 1-oxide]", "melting point": "122 to 124 °C"},
      {"smiles": "[O-][n+]1nc(Cl)nc2cc(Cl)ccc21", "note": "[Compound 133, 3,6-Dichloro-1,2,4-benzotriazine 1-Oxide]", "melting point": "149 to 151 °C"},
      {"smiles": "Cc1cc2nc(NCCNC(=O)OC(C)(C)C)n[n+]([O-])c2cc1C", "note": "[Compound 105, tert-Butyl 2-[(6,7-dimethyl-1-oxido-1,2,4-benzotriazin-3-yl)amino]ethylcarbamate]", "melting point": "226 to 228 °C"},
      {"smiles": "Cc1cccc2nc(N)n[n+]([O-])c12", "note": "[Compound 3b, 8-Methyl-1,2,4-benzotriazin-3-amine 1-oxide]", "melting point": "265 °C (dec.)"},
      {"smiles": "C=CCc1nc2cc(C)ccc2[n+]([O-])n1", "note": "[Compound 80, 3-Allyl-6-methyl-1,2,4-benzotriazine 1-oxide]", "melting point": "65 to 67 °C"},
      {"smiles": "CCCCSc1ccc2c(c1)nc(N)n[n+]2[O-]", "note": "[Compound 3x, 6-(Butylsulfanyl)-1,2,4-benzotriazin-3-amine 1-oxide]", "melting point": "180 to 182 °C"},
      {"smiles": "COc1cc2c(cc1C)nc(Cl)n[n+]2[O-]", "note": "[Compound 117, 3-Chloro-7-methoxy-6-methyl-1,2,4-benzotriazine 1-oxide]", "melting point": "200 to 202 °C"},
      {"smiles": "Nc1nc2ccc(F)cc2[n+]([O-])n1", "note": "[Compound 3k, 7-Fluoro-1,2,4-benzotriazin-3-amin 1-oxide]", "melting point": "280 to 290 °C (dec.)"},
      {"smiles": "Nc1nc2c(Cl)cccc2[n+]([O-])n1", "note": "[Compound 3aa, 5-Chloro-1,2,4-benzotriazin-3-amine 1-oxide]", "melting point": "251 to 254 °C"},
      {"smiles": "CCCN(CCC)CCNc1nc2cc(C)ccc2[n+]([O-])n1", "note": "[Compound 140, N^1-(6-Methyl-1-oxido-1,2,4-benzotriazin-3-yl)-N^2,N^2-dipropyl-1,2-ethanediamine]", "melting point": "88 to 90 °C"},
      {"smiles": "COc1ccc2c(c1)nc(Cl)n[n+]2[O-]", "note": "[Compound 83, 3-Chloro-6-methoxy-1,2,4-benzotriazine 1-oxide]", "melting point": "196 to 199 °C"},
      {"smiles": "CCCN(CCC)CCNc1nc2cccc(C)c2[n+]([O-])n1", "note": "[Compound 165, N^1-(8-Methyl-1-oxido-1,2,4-benzotriazin-3-yl)-N^2,N^2-dipropyl-1,2-ethanediamine]", "melting point": "91 to 93 °C"},
      {"smiles": "COc1cc2c(cc1C)nc(NCCN(C)C)n[n+]2[O-]", "note": "[Compound 118, N^1,N^1-Dimethyl-N^2-(7-methoxy-6-methyl-1-oxido-1,2,4-benzotriazin-3-yl)-1,2-ethanediamine]", "melting point": "182 to 184 °C"},
      {"smiles": "CCc1nc2ccc(OCCOC)cc2[n+]([O-])n1", "note": "[Compound 97, 3-Ethyl-7-(2-methoxyethoxy)-1,2,4-benzotriazine 1-oxid]", "melting point": "95 to 97 °C"},
      {"smiles": "Cc1cc(C)c2c(c1)nc(NCCN1CCCCC1)n[n+]2[O-]", "note": "[Compound 110, 6,8-Dimethyl-N-[2-(1-piperidinyl)ethyl]-1,2,4-benzotriazin-3-amine 1-oxide]", "melting point": "177 to 178 °C"},
      {"smiles": "Cc1cccc2c1nc(N)n[n+]2[O-]", "note": "[Compound 3z, 5-Methyl-1,2,4-benzotriazin-3-amine 1-oxide]", "melting point": "253 to 255 °C"},
      {"smiles": "CCN(CC)CCNc1nc2cc(C)c(C)cc2[n+]([O-])n1", "note": "[Compound 166, N^1-(6,7-Dimethyl-1-oxido-1,2,4-benzotriazin-3-yl)-N^2,N^2-diethyl-1,2-ethanediamine]", "melting point": "130 to 132 °C"},
      {"smiles": "Cc1cccc2nc(NCCN3CCOCC3)n[n+]([O-])c12", "note": "[Compound 163, 8-Methyl-N-[2-(4-morpholinyl)ethyl]-1,2,4-benzotriazin-3-amine 1-Oxide]", "melting point": "168 to 170 °C"},
      {"smiles": "COCCc1nc2ccccc2[n+]([O-])n1", "note": "[Compound 63, 3-(2-Methoxyethyl)-1,2,4-benzotriazine 1-oxide]", "melting point": "56 to 58 °C"}
    ]}
  ]
}
